Experimental data reported in PMC12562155, “Interference-Free Measurement of Urinary Angiotensin-Converting Enzyme (ACE) Activity: Diagnostic and Therapeutic Monitoring Implications” (Biomedicines, 2025).
Counter-ions that a name gives are not always drawn. Residues, ends and D or L forms follow the SMILES beside them. *: point of attachment. Cbz = O=C(OCc1ccccc1)*

Legend:
Assay type in all cases: biochemical
[1] = biological target: T1, urinary angiotensin-converting enzyme (uACE) (Homo sapiens, UniProt P12821); experiment: Fluorescent kinetic uACE activity assay with ACE-specific inhibitors and inhibitors of other proteases (sensitivity testing); details: for effect on measured uACE activity: peptidase inhibitors, inhibitor-free 10 kDa retentate
T1 construct: from tissue; host or cells: human urine (native, or retentate of 10 kDa / 30 kDa Vivaspin 20 membrane filters)
T1 sequence (P12821 30-1232 limits assumed): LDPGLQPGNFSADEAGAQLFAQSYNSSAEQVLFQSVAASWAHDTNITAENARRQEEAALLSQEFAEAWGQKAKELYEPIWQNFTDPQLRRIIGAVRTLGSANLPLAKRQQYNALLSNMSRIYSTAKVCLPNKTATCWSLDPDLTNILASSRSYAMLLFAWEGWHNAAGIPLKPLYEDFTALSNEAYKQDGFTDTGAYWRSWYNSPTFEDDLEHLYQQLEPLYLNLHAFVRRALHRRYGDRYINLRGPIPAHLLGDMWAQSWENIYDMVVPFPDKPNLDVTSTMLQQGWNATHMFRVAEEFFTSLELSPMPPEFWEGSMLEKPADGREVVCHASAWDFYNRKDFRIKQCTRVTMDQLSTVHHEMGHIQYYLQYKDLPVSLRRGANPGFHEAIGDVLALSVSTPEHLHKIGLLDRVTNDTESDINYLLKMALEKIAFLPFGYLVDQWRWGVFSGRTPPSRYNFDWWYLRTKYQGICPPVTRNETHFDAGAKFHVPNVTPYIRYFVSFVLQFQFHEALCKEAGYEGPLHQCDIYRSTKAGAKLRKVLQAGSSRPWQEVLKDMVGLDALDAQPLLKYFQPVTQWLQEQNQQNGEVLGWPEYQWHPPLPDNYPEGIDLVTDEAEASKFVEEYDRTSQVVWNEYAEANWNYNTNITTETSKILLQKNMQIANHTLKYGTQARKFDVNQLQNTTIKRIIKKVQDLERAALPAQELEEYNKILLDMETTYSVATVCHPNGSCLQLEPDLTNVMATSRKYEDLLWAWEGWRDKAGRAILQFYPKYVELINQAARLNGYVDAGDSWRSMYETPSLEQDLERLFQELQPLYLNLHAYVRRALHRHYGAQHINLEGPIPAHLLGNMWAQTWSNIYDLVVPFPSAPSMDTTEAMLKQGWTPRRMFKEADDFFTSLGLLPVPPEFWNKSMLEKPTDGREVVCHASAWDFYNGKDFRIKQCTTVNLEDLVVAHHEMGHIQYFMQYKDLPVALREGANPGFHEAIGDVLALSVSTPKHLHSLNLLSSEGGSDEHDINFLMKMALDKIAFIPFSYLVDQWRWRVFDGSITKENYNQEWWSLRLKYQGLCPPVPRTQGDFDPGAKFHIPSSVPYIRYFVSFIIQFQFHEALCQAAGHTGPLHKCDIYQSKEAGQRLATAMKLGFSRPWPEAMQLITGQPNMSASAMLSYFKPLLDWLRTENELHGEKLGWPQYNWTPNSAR

[2] = biological target: T1, urinary angiotensin-converting enzyme (uACE); experiment: Fluorescent kinetic ACE activity assay on inhibitor-free ACE purified from urine (30 kDa retentate) with potential endogenous inhibitors; details: for uACE inhibition within reference (physiological) urinary concentration range: ACE purified from urine, physiological concentration range of the molecule in urine; for IC50: ACE purified from urine (30 kDa retentate), two-phase decay fit
Protocol: (§1) ACE activity was measured using the optimized fluorescent kinetic method previously reported by our group with different sample dilutions for each experiment.
In the final dilutional protocol, the reaction mixture contained 100 mM tris(hydroxymethyl)aminomethane hydrochloride (TRIS) buffer (pH 7.0), 15 μM Abz-FRK(Dnp)P-OH substrate (synthesized by Peptide 2.0, Chantilly, VA, USA), 50 mM NaCl, 10 μM ZnCl2, and urine at 64-fold and 128-fold final dilutions. […] Continuous recording of fluorescent intensity change was performed for 90 min with 1-min measurement intervals at 37 °C. Data points between 20 min and 80 min were used for analysis. When activity measured at 64-fold dilution exceeded that measured at 128-fold, the 64-fold results were used to avoid over-dilution bias of dilute urine samples.
Inhibitor-free ACE pre-purified on a 30 kDa Vivaspin 20 membrane filter column was used to identify inhibitors. Potential inhibitors were dissolved according to factory instructions (Urea: Cat. No.: U6504-1KG; Sigma-Aldrich, St. Louis, MO, USA; Uric acid: Cat. No.: U2625-25G; Sigma-Aldrich, St. Louis, MO, USA; Urobilinogen: Cat. No: 651-10; Lee Biosolutions, Maryland Heights, MO, USA). In the corresponding experiments, uACE with activities ranging from 0.15 to 0.53 U/L was applied. The obtained curves were fitted using the ‘two-phase decay’ equation in GraphPad Prism software, version 9 (GraphPad Software Inc., San Diego, CA, USA).

serum ACE = biological target: T2, serum ACE (Homo sapiens, UniProt P12821); experiment: Serum ACE activity in the presence of phosphoramidon; details: compared with effect on uACE
T2 construct: from tissue; host or cells: serum
T2 sequence (P12821 30-1232 limits assumed): as above
Protocol: as §1

| SMILES | effect on measured uACE activity [1] | uACE inhibition within reference (physiological) urinary concentration range [2] | other results |
| --- | --- | --- | --- |
| CC(C)C[C@@H](N)[C@H](O)C(=O)N[C@H](C(=O)N[C@H](C(=O)N[C@@H](CC(=O)O)C(=O)O)C(C)C)C(C)C.Cl [Amastatin hydrochloride] | had no effect |  |  |
| CC(C)C[C@H](N[C@@H](Cc1cncn1Cc1cc(Cl)cc(Cl)c1)C(=O)O)C(=O)O [MLN-4760] | had no effect |  |  |
| NC(N)=O [Urea] |  | 10–25% |  |
| O=c1[nH]c(=O)c2[nH]c(=O)[nH]c2[nH]1 [Uric acid] |  | 30–50% | IC50 [2]: 3.61 mM |
| CCC1=C(C)C(Cc2[nH]c(Cc3[nH]c(CC4NC(=O)C(C)=C4CC)c(C)c3CCC(=O)O)c(CCC(=O)O)c2C)NC1=O (stereo not drawn) [Urobilinogen] |  | 3–20% | IC50 [2]: 0.298 mM; IC50 ([2]; listed as urobilinogen): 0.298 mM |
| O=C[C@@H]1CCCN1C(=O)[C@@H]1CCCN1C(=O)OCc1ccccc1 [Z-prolyl-prolinal] (Cbz-Pro-Pro-aldehyde) | no detectable effect |  |  |
| C[C@H](NC(=O)[C@@H]1CCCN1C(=O)[C@@H]1CCCN1C(=O)[C@@H](O)[C@H](N)Cc1ccccc1)C(N)=O [apstatin, Apstatin] | did not alter uACE activity |  |  |
| CC(C)C[C@H](NC(=O)[C@@H](O)[C@H](N)Cc1ccccc1)C(=O)O [bestatin hydrochloride, Bestatin hydrochloride] | did not alter uACE activity |  |  |
| NCCCC[C@H](N[C@@H](CCc1ccccc1)C(=O)O)C(=O)N1CCC[C@H]1C(=O)O [lisinopril] |  |  | inhibition of ACE activity in control reactions ([1]; 1 μM): completely inhibiting ACE activity; extent of uACE activity inhibition ([1]; ACE-inhibitor drugs, concentration series): completely inhibited |
| CC(C)C[C@H](NP(=O)(O)O[C@@H]1O[C@@H](C)[C@H](O)[C@@H](O)[C@H]1O)C(=O)N[C@@H](Cc1c[nH]c2ccccc12)C(=O)O [phosphoramidon disodium salt, Phosphoramidon disodium salt] |  |  | reduction of uACE activity ([1]; 1 μM concentration): approximately 35%; effect on serum ACE activity (serum ACE): comparable inhibitory effect |
